Earlier results in patent US20250311736A1, “SEED TREATMENT METHODS FOR INCREASING YIELD IN CROP PLANTS” (BAYER AKTIENGESELLSCHAFT, priority 2021, published 2025).

Test system: plants
Conditions: Tavares et al., 2011; Suwitchayanon et al., 2019

## O=C(/C=C/C=C/c1ccc2c(c1)OCO2)N1CCCCC1 [piperine]
  phytotoxic effect on plants (inhibits their growth): phytotoxic effect
